The values below come from ChEMBL document CHEMBL5338823, “Discovery of Novel 5,6-Dihydro-1,2,4-triazine Derivatives as Efficacious Glucagon-Like Peptide-1 Receptor Agonists” (J Med Chem, 2023).

Active and inactive are the calls of the source. The rule behind the calls is not given here. Some results are limits rather than exact numbers.

For orientation: inhibition means the relative decrease from the control value, in per cent. A high value points to a response far below the control. The term Cmax denotes the highest concentration seen after dosing. What is called EC50 is the concentration that produces a half-maximal response. The Tmax is the time from dosing to the highest level. As a reminder, the IC50 is the concentration that inhibits the measured activity by half. Low readings indicate greater potency, high ones weaker potency.

One data set has as its target hERG (KCNH2) (Homo sapiens, UniProt Q12809). Description: Inhibition of hERG at 40 uM relative to control. On the technique in general: The hERG channel carries a current that helps repolarise heart muscle cells.
Data set [1] in a line: Cmax in Sprague-Dawley rat at 5 mg/kg, po measured upto 24 hrs by LC-MS/MS analysis. It is filed as ADME, organism-based. On the set-up: time < 24 hrs, dose 5 mg/kg, route po. The conditions noted are these: in vivo.
For data set [2], the target named is T1, Glucagon-like peptide 1 receptor (Homo sapiens, UniProt P43220). Description: Potency index, ratio of danuglipron EC50 to test compound EC50 for agonist activity at N-terminal HA-tagged human GLP-1R expressed in HEK293 cells assessed as change in intracellular calcium level by Fluo-4 AM dye based calcium mobilization assay. It is filed as functional, cell-based. In general terms: Calcium flux is commonly read through the fluorescence of an indicator in the cells.

For data set [3], the target named is T2, Glucagon-like peptide 1 receptor (Mus musculus) (UniProt O35659).
T2 sequence (whole entry): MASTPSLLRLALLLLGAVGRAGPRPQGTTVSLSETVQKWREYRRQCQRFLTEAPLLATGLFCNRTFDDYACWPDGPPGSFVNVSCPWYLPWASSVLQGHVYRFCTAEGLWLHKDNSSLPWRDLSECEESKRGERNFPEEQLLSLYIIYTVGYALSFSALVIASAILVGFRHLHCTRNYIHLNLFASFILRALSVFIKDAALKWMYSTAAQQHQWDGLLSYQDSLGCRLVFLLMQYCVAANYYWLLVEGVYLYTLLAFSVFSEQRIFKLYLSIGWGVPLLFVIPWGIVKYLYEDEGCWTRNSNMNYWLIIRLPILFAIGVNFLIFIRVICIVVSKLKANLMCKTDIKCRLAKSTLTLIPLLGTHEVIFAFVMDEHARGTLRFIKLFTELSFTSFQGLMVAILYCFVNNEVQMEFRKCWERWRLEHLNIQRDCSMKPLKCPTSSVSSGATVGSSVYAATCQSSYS
Description: Activation of mouse GLP-1R.

In data set [4] the target is T1, Glucagon-like peptide 1 receptor. Description: Agonist activity at N-terminal HA-tagged human GLP-1R expressed in HEK293 cells assessed as change in intracellular calcium level by Fluo-4 AM dye based calcium mobilization assay. The data set is classed as functional, cell-based.
The nature of data set [5]: Tmax in Sprague-Dawley rat at 5 mg/kg, po measured upto 24 hrs by LC-MS/MS analysis. It is filed as ADME, organism-based. The following applies: in vivo.
Data set [6] addresses Voltage-gated inwardly rectifying potassium channel KCNH2 (Homo sapiens, UniProt Q12809). Description: Inhibition of hERG.
A short description of data set [7]: Stability in human liver microsomes assessed as intrinsic clearance at 1 uM measured upto 60 mins in the presence of NADPH by LC-MS/MS analysis. It is filed as ADME, Microsome. The following applies: 1 h. A general note: Liver microsomes are vesicles of endoplasmic reticulum, rich in cytochrome P450 enzymes.

T1 sequence (P43220 whole entry): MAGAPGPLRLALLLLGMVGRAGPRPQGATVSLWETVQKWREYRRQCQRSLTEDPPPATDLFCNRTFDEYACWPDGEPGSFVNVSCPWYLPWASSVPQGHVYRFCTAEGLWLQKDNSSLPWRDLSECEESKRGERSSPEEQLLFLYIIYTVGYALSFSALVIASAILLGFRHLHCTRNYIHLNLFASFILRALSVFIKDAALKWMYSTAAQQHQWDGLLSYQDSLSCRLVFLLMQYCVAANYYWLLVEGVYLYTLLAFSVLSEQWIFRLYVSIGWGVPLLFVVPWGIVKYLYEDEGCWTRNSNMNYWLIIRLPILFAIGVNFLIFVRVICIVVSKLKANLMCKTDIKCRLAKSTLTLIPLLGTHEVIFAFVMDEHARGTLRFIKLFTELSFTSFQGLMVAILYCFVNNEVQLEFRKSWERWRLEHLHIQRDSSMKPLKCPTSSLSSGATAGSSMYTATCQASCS
Voltage-gated inwardly rectifying potassium channel KCNH2, sequence (Q12809 whole entry): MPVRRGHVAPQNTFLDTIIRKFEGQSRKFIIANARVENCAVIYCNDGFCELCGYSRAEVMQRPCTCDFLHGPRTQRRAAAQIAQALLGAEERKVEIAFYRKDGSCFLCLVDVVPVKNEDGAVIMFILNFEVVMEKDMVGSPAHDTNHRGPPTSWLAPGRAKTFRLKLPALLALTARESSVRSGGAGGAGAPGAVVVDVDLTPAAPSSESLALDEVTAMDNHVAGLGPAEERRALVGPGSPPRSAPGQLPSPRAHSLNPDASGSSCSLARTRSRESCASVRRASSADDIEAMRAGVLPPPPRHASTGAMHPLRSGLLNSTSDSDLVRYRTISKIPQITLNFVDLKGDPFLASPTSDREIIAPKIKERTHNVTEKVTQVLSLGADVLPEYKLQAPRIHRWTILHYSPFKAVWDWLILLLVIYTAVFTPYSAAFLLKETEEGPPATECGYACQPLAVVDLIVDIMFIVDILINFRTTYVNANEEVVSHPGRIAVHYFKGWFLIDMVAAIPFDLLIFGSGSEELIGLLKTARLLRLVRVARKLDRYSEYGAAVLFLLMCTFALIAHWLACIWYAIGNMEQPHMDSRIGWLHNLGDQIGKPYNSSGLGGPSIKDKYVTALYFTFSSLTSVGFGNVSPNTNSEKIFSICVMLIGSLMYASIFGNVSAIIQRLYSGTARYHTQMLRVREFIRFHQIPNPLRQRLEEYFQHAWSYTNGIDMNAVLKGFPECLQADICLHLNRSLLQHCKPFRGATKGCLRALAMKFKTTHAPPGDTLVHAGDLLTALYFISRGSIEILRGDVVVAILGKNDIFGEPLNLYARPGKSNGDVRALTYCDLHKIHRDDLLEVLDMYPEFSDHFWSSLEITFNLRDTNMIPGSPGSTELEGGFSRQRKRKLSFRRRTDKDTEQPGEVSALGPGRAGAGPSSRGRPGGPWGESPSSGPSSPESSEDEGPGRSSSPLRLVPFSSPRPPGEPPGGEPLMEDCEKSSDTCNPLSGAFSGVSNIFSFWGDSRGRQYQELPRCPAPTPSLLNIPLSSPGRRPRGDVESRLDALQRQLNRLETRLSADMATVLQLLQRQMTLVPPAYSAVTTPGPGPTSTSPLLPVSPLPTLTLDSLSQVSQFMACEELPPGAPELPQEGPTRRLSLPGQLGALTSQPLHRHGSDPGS
hERG (KCNH2), sequence (Q12809 whole entry): as above

As for `COc1cc(C(F)(F)F)ccc1COc1cccc(N2C=NN(Cc3nc4c(F)cc(C(=O)O)cc4n3C[C@@H]3CCO3)CC2)n1`, on hERG (KCNH2), the inhibition at 40 µM was 20%. The Cmax in data set [1] came out at 130 ng/mL. In addition, in data set [2], the Ratio EC50 amounted to 10. Moreover, the result in data set [3] was inactive. Further, in data set [4], the EC50 was 168 nM. Also, the Tmax in data set [5] came out at 15 min. Besides, in data set [6], the half-inhibitory concentration (IC50) was > 40000 nM. For the same compound, the CLH in data set [7] amounted to 12 mL/min/g.
